Experimental findings from patent US12144506B2, “Methods for aneurysm treatment” (Nectero Medical, Inc., priority 2018, dated 2024) are described below.

This data set can be described thus: safe delivery concentration of PGG as a function of its purity. The conditions noted are these: PGG of the stated purity; toxic impurities gallic acid and methyl gallate. From the text:
The concentrations of PGG which may be safely delivered to a patient may be generally proportional to the purity of the PGG. For example, gallic acid, depicted in FIG. 1B, and methyl gallate, depicted in FIG. 1C, are common cytotoxic impurities which may be removed from a source batch of PGG during the purification process. Eliminating the presence of or reducing the concentration of toxic impurities from the delivered PGG may allow higher concentrations of the PGG to be delivered due to the mitigation of the toxic side effects of impurities commonly found in isolated PGG. For instance, studies have shown that substantially 100% pure PGG may be safely delivered at concentrations up to approximately 0.330% (w/v), 95% pure PGG may be safely delivered at concentrations up to approximately 0.125% (w/v), and 85% pure PGG may be safely delivered at concentrations up to approximately 0.06% (w/v). Delivery of PGG in higher concentrations may enhance the amount of uptake of PGG by the target tissue which may increase the efficacy of the PGG treatment. Delivery of PGG in higher concentrations may increase the rate of uptake of PGG by the tissue allowing the same amount of uptake in shorter delivery times. […]

With “1,2,3,4,6-pentagalloyl glucose [85% pure PGG]”, the “concentration up to which PGG may be safely delivered” value is listed as ≤ 0.06 % (w/v). Under “1,2,3,4,6-pentagalloyl glucose [substantially 100% pure PGG]” stands ≤ 0.330 % (w/v).
